Key:
Type in all cases: biochemical
[1] = biological target: T1, PLCγ1^wt (Homo sapiens, UniProt P19174, I813T); experiment: PLC activity assay 1 (A1), XY-69 substrate in liposomes, nucleotide inhibition; details: for IC50: XY-69 in liposomes, mean and SD, nine replicates
T1 construct: specific activities of PLCγ1^wt and PLCγ2^wt full-length proteins; made in house; host or cells: Escherichia coli T7 Express lysY/Iq
T1 sequence (P19174 1-1291 isoform P19174-2 I813T): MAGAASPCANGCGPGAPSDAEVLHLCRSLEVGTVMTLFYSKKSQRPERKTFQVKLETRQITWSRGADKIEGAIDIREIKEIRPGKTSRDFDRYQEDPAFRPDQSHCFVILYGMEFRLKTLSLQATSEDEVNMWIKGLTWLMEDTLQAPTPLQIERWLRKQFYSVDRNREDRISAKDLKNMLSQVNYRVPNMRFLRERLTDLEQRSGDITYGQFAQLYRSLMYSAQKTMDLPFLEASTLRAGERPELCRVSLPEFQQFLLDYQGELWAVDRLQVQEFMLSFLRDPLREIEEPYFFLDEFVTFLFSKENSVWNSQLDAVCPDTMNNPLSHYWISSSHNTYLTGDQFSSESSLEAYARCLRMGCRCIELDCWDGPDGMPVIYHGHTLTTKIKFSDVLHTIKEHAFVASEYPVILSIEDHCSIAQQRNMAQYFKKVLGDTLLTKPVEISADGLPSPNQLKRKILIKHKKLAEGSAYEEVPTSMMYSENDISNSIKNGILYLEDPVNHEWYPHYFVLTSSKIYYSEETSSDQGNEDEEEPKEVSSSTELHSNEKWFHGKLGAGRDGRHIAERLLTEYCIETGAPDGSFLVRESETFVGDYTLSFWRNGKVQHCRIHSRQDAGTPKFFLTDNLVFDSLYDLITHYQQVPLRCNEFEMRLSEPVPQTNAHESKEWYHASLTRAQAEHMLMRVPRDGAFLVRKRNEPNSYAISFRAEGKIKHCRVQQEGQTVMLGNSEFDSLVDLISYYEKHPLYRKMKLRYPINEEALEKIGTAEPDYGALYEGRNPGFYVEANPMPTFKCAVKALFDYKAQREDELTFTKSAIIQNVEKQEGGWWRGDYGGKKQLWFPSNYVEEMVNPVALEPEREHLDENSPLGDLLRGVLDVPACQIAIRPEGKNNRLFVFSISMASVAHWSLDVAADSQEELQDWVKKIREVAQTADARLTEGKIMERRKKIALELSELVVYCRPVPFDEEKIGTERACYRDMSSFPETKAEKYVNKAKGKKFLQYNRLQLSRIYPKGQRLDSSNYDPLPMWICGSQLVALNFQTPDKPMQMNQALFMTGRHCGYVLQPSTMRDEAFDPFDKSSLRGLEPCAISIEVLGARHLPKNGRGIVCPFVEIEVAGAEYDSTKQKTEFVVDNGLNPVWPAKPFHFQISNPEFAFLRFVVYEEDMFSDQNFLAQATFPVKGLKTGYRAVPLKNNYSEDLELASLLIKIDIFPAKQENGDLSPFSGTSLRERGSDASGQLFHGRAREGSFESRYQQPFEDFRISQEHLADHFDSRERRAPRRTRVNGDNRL

[2] = biological target: T2, PLCδ1 (Homo sapiens, UniProt P51178); experiment: PLC activity assay 1 (A1), PLCδ1; details: substrate in solution or in lipid vesicles (Figure 3C, D); except small changes at very high concentration
T2 construct: made in house; host or cells: Escherichia coli T7 Express lysY/Iq
T2 sequence (P51178 1-756): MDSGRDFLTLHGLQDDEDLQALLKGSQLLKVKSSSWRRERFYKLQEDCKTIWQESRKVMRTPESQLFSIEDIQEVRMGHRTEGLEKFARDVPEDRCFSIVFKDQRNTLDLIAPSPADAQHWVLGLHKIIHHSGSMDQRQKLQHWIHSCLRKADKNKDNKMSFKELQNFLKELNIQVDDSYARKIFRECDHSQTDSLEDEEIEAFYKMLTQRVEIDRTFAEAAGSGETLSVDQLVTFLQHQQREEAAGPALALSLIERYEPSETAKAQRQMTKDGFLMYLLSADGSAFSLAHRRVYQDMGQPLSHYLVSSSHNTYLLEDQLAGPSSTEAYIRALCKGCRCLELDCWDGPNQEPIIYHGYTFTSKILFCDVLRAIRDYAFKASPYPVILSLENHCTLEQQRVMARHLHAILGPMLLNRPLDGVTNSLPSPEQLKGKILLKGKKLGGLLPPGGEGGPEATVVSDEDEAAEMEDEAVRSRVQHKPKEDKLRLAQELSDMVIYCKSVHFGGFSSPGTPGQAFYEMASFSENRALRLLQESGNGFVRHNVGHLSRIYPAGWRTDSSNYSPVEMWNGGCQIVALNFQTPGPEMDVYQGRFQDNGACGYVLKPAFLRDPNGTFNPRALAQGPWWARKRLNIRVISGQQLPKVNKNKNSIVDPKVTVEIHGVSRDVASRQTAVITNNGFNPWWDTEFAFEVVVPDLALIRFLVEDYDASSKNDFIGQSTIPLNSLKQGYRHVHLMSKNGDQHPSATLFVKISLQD

[3] = biological target: T1, PLCγ1^wt; experiment: Assay 1 (A1) with FGFR1 kinase domain (phosphorylation), with or without nickel lipids
Description: A CLARIOstar plate reader (BMG Labtech) was used to measure the production of the fluorescent product. The excitation and emission wavelengths were 485–15 and 520–20, respectively. Each experiment was performed in at least triplicate; in many cases, nine-fold replicates were generated. The enzyme progress curves were plotted for each concentration of nucleotide using Graphpad Prism software. The initial linear rate of product generation was calculated and converted to a % inhibition when compared with the rate of PLC activity in the absence of nucleotide. These % inhibition values were plotted against the logarithm of the nucleotide concentration in Graphpad Prism and the data fitted with the function (Inhibitor) vs. response–variable slope (four parameters). The resultant fit yielded the IC50 values for the nucleotide inhibition.
The standard XY-69 assay outlined above was followed with the following changes. The PLC activity buffer also contained 10 mM MgCl2. The final concentration of PLCγ1^WT in the assay was 12.5 nM and also contained a 10-fold excess of the FGFR1 kinase domain. The ATP dilution series was first added to the assay plate, followed by the enzyme mix. […] Subsequently, the standard XY-69 liposomes (with or without nickel lipids) were added, and the experiment monitored in the Clariostar as outlined above.

SMILES | IC50 in liposome assay (A1) relative to solution assay (A2), fold lower [1] | IC50 [1] [µM] | IC50 of ADP relative to ATP (fold lower) ([1]; assays A1 and A2) | effect on PLC activity of PLCδ1 [2] | inhibition with membrane proximity and phospho-PLCγ1 combined ([3]; 10% Ni-lipids and FGFR1-KD, range of ATP concentrations including physiological levels) | PLC activity with increasing ATP in presence of FGFR1 kinase ([3]; FGFR1 kinase domain, no Ni-lipids)
Nc1ncnc2c1ncn2[C@@H]1O[C@H](COP(=O)(O)OP(=O)(O)O)[C@@H](O)[C@H]1O [ADP] | eight-fold | 1 to 20 | 2–4 fold | not affected | – | –
Nc1ncnc2c1ncn2[C@@H]1O[C@H](COP(=O)(O)OP(=O)(O)OP(=O)(O)O)[C@@H](O)[C@H]1O [ATP] | – | 1 to 20 | – | not affected | clear reduction in nucleotide inhibition | enhanced PLC activity compared with the control
